What was measured:
[1] = tested on: DND41; test: 7-day Cell Titer Glo viability assay; format: cell-based, Human; settings: DND41 cells, 7-day viability assay
Experimental: (§1) Human T-ALL cell lines were purchased from ATCC (Manassas, Va.) or DSMZ (Braunschweig, Germany). Cell lines were maintained in RPMI supplemented with 10-15% FBS and 2 mmol/L glutamine. For IC50 analyses TALL cell lines were plated in 96 well plates at 5000 cells/well, except for Tall-1 cells which were plated at 10,000 cells/well. Cells were re-fed with compound and media on day 4. Viability assays were performed using Cell Titer Glo kit (Promega, Cat. No. G7572, Fitchburg, Wis.) 7 days after compound addition. For larger scale compound treatments, TALL cell lines were plated in T-150 flasks at 200,000 cells/mL and treated at 0.1 or 1.0 μM GSI (MRK-003) for 3 days or as indicated. GSI washout studies were performed using 10 μM GSI. T-150 cultures were also re-fed on day 4.

[2] = tested on: JURKAT; test: 7-day Cell Titer Glo viability assay; format: cell-based, Human; settings: JURKAT cells, 7-day viability assay
Experimental: as §1

[3] = tested on: HBP-ALL; test: 7-day Cell Titer Glo viability assay; format: cell-based, Human; settings: HBP-ALL cells, 7-day viability assay
Experimental: as §1

[4] = tested on: TALL-1; test: 7-day Cell Titer Glo viability assay; format: cell-based, Human; settings: TALL-1 cells, 7-day viability assay
Experimental: as §1

[5] = tested on: RPMI 8402; test: 7-day Cell Titer Glo viability assay; format: cell-based, Human; settings: RPMI 8402 cells, 7-day viability assay
Experimental: as §1

[6] = tested on: HSB-2; test: 7-day Cell Titer Glo viability assay; format: cell-based, Human; settings: HSB-2 cells, 7-day viability assay
Experimental: as §1

[7] = tested on: MOLT -4; test: 7-day Cell Titer Glo viability assay; format: cell-based, Human; settings: MOLT -4 cells, 7-day viability assay
Experimental: as §1

[8] = tested on: PF-382; test: 7-day Cell Titer Glo viability assay; format: cell-based, Human; settings: PF-382 cells, 7-day viability assay
Experimental: as §1

[9] = tested on: SKW-3; test: 7-day Cell Titer Glo viability assay; format: cell-based, Human; settings: SKW-3 cells, 7-day viability assay
Experimental: as §1

[10] = tested on: KARPAS-45; test: 7-day Cell Titer Glo viability assay; format: cell-based, Human; settings: KARPAS-45 cells, 7-day viability assay
Experimental: as §1

[11] = tested on: MOLT-16; test: 7-day Cell Titer Glo viability assay; format: cell-based, Human; settings: MOLT-16 cells, 7-day viability assay
Experimental: as §1

[12] = tested on: KOPTK-1; test: 7-day Cell Titer Glo viability assay; format: cell-based, Human; settings: KOPTK-1 cells, 7-day viability assay
Experimental: as §1

[13] = tested on: SUPT-11; test: 7-day Cell Titer Glo viability assay; format: cell-based, Human; settings: SUPT-11 cells, 7-day viability assay
Experimental: as §1

[14] = tested on: LOUCY; test: 7-day Cell Titer Glo viability assay; format: cell-based, Human; settings: LOUCY cells, 7-day viability assay
Experimental: as §1

[15] = tested on: BE-13; test: 7-day Cell Titer Glo viability assay; format: cell-based, Human; settings: BE-13 cells, 7-day viability assay
Experimental: as §1

[16] = tested on: CEM; test: 7-day Cell Titer Glo viability assay; format: cell-based, Human; settings: CEM cells, 7-day viability assay
Experimental: as §1

[17] = tested on: CDKN2D, CDKN1B; test: Immunoblot of CDKN2D and CDKN1B; format: cell-based, Human; settings: TALL1 cells
From the text: Standard western blotting procedures were used. Antibodies used as follows; Rb-underphosphorylated, (BD Biosciences, Cat. No 554164, San Jose, Calif.) Rb-Total (Cat. No. 9309), CDKN1B (Cell Signaling Technologies, Cat. No. 2552, Danvers, Mass.), CDKN2D (Santa Cruz Biotechnologies, Cat No. sc-1063, Santa Cruz, Calif.), Beta-Actin (Abcam Inc., Cat. No. 8226, Cambridge, Mass.) Immunoblot of NOTCH intracellular domain (NICD) was previously determined (O'Neil, Grim et al. 2007)

[18] = tested on: human T-ALL cell lines; test: Grouping of 16 T-ALL cell lines by GSI sensitivity (7-day ATP viability assay); format: cell-based
Experimental: as §1
Previous studies have identified mutations in the heterodimerization domain or PEST domain of the NOTCH1 gene in T-ALL cell lines and patient samples resulting in increased NICD and presumably activation of the NOTCH signaling pathway (Weng, Ferrando et al. 2004; Zhu, Zhao et al. 2006). In a subset of human T-ALL cell lines with activating mutations in NOTCH1, treatment with GSIs leads to cell cycle arrest and apoptosis (Weng, Ferrando et al. 2004; Lewis, Leveridge et al. 2007). […] We determined IC50 values for 16 T-ALL cell lines using a 7-day viability assay which allowed grouping into four sensitivity groups (1) high, IC50<1 uM, (2) medium, IC50 3-4 uM, (3) low, IC50 6-7 uM, (4) none, IC50>10 uM and comparison to NOTCH1 mutuation and NICD protein Levels (Table1).
GSI IC50s, based on a 7-day ATP viability assay, are summarized for 16 T-ALL cell lines and grouped into high […], medium (3-4 uM), low (6-7 uM) or insensitive groupings (>10 uM). Also summarized is NOTCH1 mutation status, NICD levels and cell line group size for each sensitivity level previously described (O'Neil et al. 2007). NICD levels are reported qualitatively based on immunoblot signal, 0=none, 1=low, 2=medium, 3=high.

[19] = tested on: TALL1; test: Flow cytometry DNA content analysis (cell cycle arrest); format: cell-based, Human; settings: GSI sensitive cell line TALL1, flow cytometry
Experimental: DNA content analysis was performed using Propidium Iodide/RNase buffer (BD Biosciences, Cat. No. 550825, San Jose, Calif.) or Draq5. Briefly, 1×10(6) cells were harvested and fixed with 70% ethanol for 20 minutes on ice, washed and then resupended in 500 uL of PI buffer for 15 min at room temperature followed by analysis on flow cytometer (FACSCalibur, BD Biosciences). Draq5 staining was performed by incubating 200,000 live cells with 10 uM Draq5 for 5 minutes followed by flow cytometric analysis (488 nm excitation).

[20] = tested on: CDKN2D, CDKN1B; test: Quantitative PCR of CDKN2D and CDKN1B in T-ALL cell lines; format: cell-based, Human; settings: TALL1 cells, 48 hours
Experimental: T-ALL cell lines were treated with DMSO or MRK-003 (active GSI) for 48 hours and then harvested. RNA was isolated using the RNeasy Mini Kit (Qiagen, Cat#: 74106). cDNA was synthesized using High Capacity Archive Kit (Applied Biosystems, Cat #: 4368814). qPCR was performed on an ABI 7900 using AACT protocol using their inventoried Taqman Probes/Primers for human CDKN2D, CDKN1B and GAPDH (as internal control). Analysis was performed in SDS 2.2.2 software (Applied Biosystems).

IC50 [2]: > 10 µM
IC50 [7]: > 10 µM
IC50 [9]: > 10 µM
IC50 [10]: 0.81 µM
IC50 [11]: > 10 µM
SMILES: O=S1(=O)N[C@@]2(CN1CC(F)(F)F)[C@@H]1CC[C@H]2Cc2ccc(/C=C/CN3CCC(C(F)(F)F)CC3)cc2C1 [MRK-003]
IC50 [1]: 0.25 µM
IC50 [3]: 0.38 µM
IC50 [4]: 0.11 µM
IC50 [5]: 0.86 µM
IC50 [6]: 3.7 µM
IC50 [8]: 3.2 µM
IC50 [12]: 0.15 µM
IC50 [13]: 7.1 µM
IC50 [14]: > 10 µM
IC50 [15]: 6.8 µM
IC50 [16]: 3.2 µM
increases in CDKN2D and CDKN1B by immunoblot (FIG. 3C) [17]: increases in the CDKi CDKN2D and CDKN1B
GSI Sensitivity ([18]; cell lines BE-13, SUPT-11): Low (low, IC50 6-7 uM)
GSI Sensitivity ([18]; cell lines CEM, PF-382, HSB-2): Medium (medium, IC50 3-4 uM)
GSI Sensitivity ([18]; cell lines JURKAT, LOUCY, MOLT -4, MOLT-16, SKW-3): None (none, IC50>10 uM)
GSI Sensitivity ([18]; cell lines TALL-1, KOPTK-1, DND41, HBP-ALL, KARPAS-45, RPMI 8402): High (high, IC50<1 uM)
cell cycle arrest (FIG. 3A) [19]: induced cell cycle arrest
increases in CDKN2D and CDKN1B by quantitative PCR (FIG. 3B) [20]: increases in the CDKi CDKN2D and CDKN1B

Source: patent US20130178391A1, “METHODS FOR PREDICTING TREATMENT RESPONSE BASED ON THE EXPRESSION PROFILES OF BIOMARKER GENES IN NOTCH MEDIATED CANCERS” (Rosetta Inpharmaceutics LLC, priority 2007, published 2013)
